Results on eight compounds are retold here after US9907306B2, “Compositions and methods for controlling nematode pests” (Monsanto Technology LLC, priority 2010, dated 2018).

One series relates to soybean cyst nematode (SCN). Put plainly: SCN greenhouse soil assay on soybean plants. It counts as in vivo, H. glycines. Conditions: 0 day treatment, 0.25 kg/ha rate, harvested 28 days after egg inoculation. The source says:
Soybeans seeds are planted in 100% sand in two inch square plastic pots.
Chemical treatment is done when the soybeans show the first trifoliate beginning to emerge about 10 to 12 days after planting. At least four hours after chemical application the nematode soybean cyst nematode (SCN) eggs are applied and 28 days after the egg inoculation the test is harvested.
(§1) One milligram of chemistry per four pots is equal to one kilogram per hectare of chemical. A standard test uses four replications. For rates above 2 kg/ha, the desired amount of chemical is weighed into a 30 ml vial (example: 8 kg/ha rate=8 mg chemical in 30 ml vial). The chemical is dissolved in 2 ml of appropriate solvent, generally acetone. For rates below 2 kg/ha, 2 milligrams of chemistry is weighed into the vial and dissolved in 2 ml of the solvent. The appropriate amount of chemical concentrate is then pipetted into a separate 30 ml vial and solvent is added to bring the volume to 2 ml (example 0.5 kg/ha=0.5 ml of concentrate+1.5 ml solvent). Each dissolved concentrate is then brought to a total of 20 milliliters using 0.05% Triton X 100 surfactant solution.
(§2) Pots to be treated are moist but not saturated. To each of four pots, five milliliters of the appropriate chemical solution is pipetted to the media surface making sure to avoid contact with the base of the plant. Immediately following chemical application, using a mist nozzle, the pot surface is wetted sufficiently to saturate the pot watering in the chemistry. The chemical application is done in the morning.
(§3) Nematode eggs, either SCN or RKN, are added to distilled water to create a concentration of […] of water. At least four hours after chemical treatment (0 day testing) or 1 week later (7 day longevity testing) the eggs are applied to the treated pots plus non-treated check plants. A small hole about 1 cm deep is punched into the pot surface. One milliliter of the nematode egg slurry is pipetted into the hole. Immediately afterwards the hole is gently covered. Watering of the test plants is then restricted to only water as needed to prevent wilt for a period of 24 hours. After the 24 hour restricted watering, normal sub-irrigation watering is done for the duration of the test.
As to `CNC(=O)O/N=C(\SC)C(=O)N(C)C` [Oxamyl, reference compound], the “percent control (cyst reduction) relative to the control blank treatment” value is recorded as 75%^.
Take `Clc1ccc(-n2nnc(-c3cccs3)n2)cc1` [compound 1]: the “percent control (cyst reduction) relative to the control blank treatment” value stood at 24%^.
As to `c1ccc(-n2nnc(-c3cccs3)n2)cc1` [compound 2], the “percent control (cyst reduction) relative to the control blank treatment” value is 52%^.
Same read-out and setting: next, `Cc1cc(Cl)ccc1-n1nnc(-c2ccco2)n1` [compound 3]: 44%^.

Another series deals with root knot nematode (RKN). The series is described as follows: RKN greenhouse soil assay on cucumber plants. Conditions: 7 day treatment, 0.1 kg/ha rate, rated 14 days after egg inoculation. It counts as in vivo, M. incognita.
Source text: Cucumber seeds are planted in a sandy soil mixture in two inch square plastic pots. When the cotyledons are fully opened and just as the first leaf begins to emerge, usually 7 days after planting, chemistry for the 7-day treatment is applied. One week later the chemistry for the 0 day treatment is applied. Separate plants are used for each application. The plants are generally in the 1-2 leaf stage now. At least four hours after the chemistry application the pots are inoculated with root knot nematode (RKN) eggs. Plants are rated for galling 14 days after the egg inoculation.
as §1, §2, §3
In the case of `Clc1ccc(-n2nnc(-c3cccs3)n2)cc1` [compound 1], the “percent control (galling reduction) relative to the control blank treatment” value is on record as 89%.
For the compound `c1ccc(-n2nnc(-c3cccs3)n2)cc1` [compound 2], the “percent control (galling reduction) relative to the control blank treatment” value is given as 47%.

Staying with this series, now noted: 7 day treatment, 0.25 kg/ha rate, rated 14 days after egg inoculation.
On to `Clc1ccc(-n2nnc(-c3cccs3)n2)cc1` [compound 1], for which the “percent control (galling reduction) relative to the control blank treatment” value is 92%.
Same read-out and setting: under `c1ccc(-n2nnc(-c3cccs3)n2)cc1` [compound 2] stands 53%.

Another series relates to Meloidogyne incognita. The series is described as follows: M. incognita miniaturized greenhouse assay (cucumber seedling in sand, root galling). In kind it is in vivo. Conditions: 1 ppm, average of triplicate gall rating, scale 0=0-5%, 1=6-20%, 2=21-50%, 3=51-100% root mass galled, 10 to 12 days after inoculation, letters a-d mark separate tests. On the procedure:
The test compound is dissolved in an acetone solution and added to water. A sprouted cucumber seedling is placed into a vial with dry sand and the water-chemical solution is added immediately. Twenty four hours later Meloidogyne incognita eggs are added to the vials and 10 to 12 days later the roots are evaluated for nematode galling.
Cucumber seeds are sprouted for 3 days in moist paper towels. Acceptable sprouts should be 3 to 4 cm long with several lateral roots just emerging. Stock solutions of chemistry are prepared in a mixture of acetone and Triton X100 (412 mg in 500 mL) to a final concentration of 5 mg/mL. The chemical stock solution is then added to 10 mL deionized water plus 0.015% Triton X100 and mixed thoroughly. This is enough to test each condition in triplicate. Ten mL dry sand is added to each vial. At this time the solubility of the chemistry is visually determined and recorded as either ppt (large precipitates) or cloudy (fine precipitates). Seedlings are planted by tilting the vial and laying the seedling in the correct orientation so that the cotyledons are just above the sand and then tilting back to cover the radicles with sand. 3.3 ml water/chemical mix is added to each vial and the vials placed in racks under fluorescent light banks. The vials are inoculated two days after planting by adding 500 vermiform M. incognita eggs to each vial in 50 uL of deionized or spring water. The vials are then kept under the fluorescent lamps at ambient room temperature and watered as needed with 1 mL deionized water, usually twice during duration of test. Harvest of the cucumber plants is done 10 to 12 days after inoculation by washing sand off the roots. A root gall rating and visual phytotoxicity rating is assigned using the following scales: Gall rating scale (Gall: % root mass galled): 0=0-5%; 1=6-20%; 2=21-50%; and 3=51-100%. The average of the triplicate gall rating is then calculated: green=0.00-0.33 (no galls); yellow=0.67-1.33 (mild galling); orange=1.67-2.33 (moderate galling); red=2.67-3.00 (severe galling). Visual phytotoxicity scale is also assigned (Vis. tox; visual reduction in root mass compared to the control): rs1=mild stunting; rs2=moderate stunting; rs3=severe stunting.
Compound `Clc1ccc(-n2nnc(-c3cccs3)n2)cc1` [compound 1] returned a gall ratings of 0.67.
In turn, `c1ccc(-n2nnc(-c3cccs3)n2)cc1` [compound 2] gave a gall ratings of 0.67.
With `Cc1cc(Cl)ccc1-n1nnc(-c2ccco2)n1` [compound 3], the gall ratings is 1.33.
With `Clc1ccc(-n2nnc(N3CCCC3)n2)cc1` [compound 4], the gall ratings turned out to be 1.33.
Same read-out and setting: under `Cn1cccc1-c1nnn(-c2ccccc2)n1` [compound 5] stands 2.33; under `c1ccc(-c2nnn(-c3cccs3)n2)cc1` [compound 6], 1.33; under `c1ccc(-n2nnc(-n3cccc3)n2)cc1` [compound 7], 1.67.

Still in this series, the particulars now being: 8 ppm, average of triplicate gall rating, scale 0=0-5%, 1=6-20%, 2=21-50%, 3=51-100% root mass galled, 10 to 12 days after inoculation.
Consider `Clc1ccc(-n2nnc(-c3cccs3)n2)cc1` [compound 1], for which the gall ratings turned out to be 0.
Consider `c1ccc(-n2nnc(-c3cccs3)n2)cc1` [compound 2], for which the gall ratings came out at 0.33.
Still for that read-out and setting: under `Cc1cc(Cl)ccc1-n1nnc(-c2ccco2)n1` [compound 3] stands 0; under `Clc1ccc(-n2nnc(N3CCCC3)n2)cc1` [compound 4], 0.33.
Consider `Cn1cccc1-c1nnn(-c2ccccc2)n1` [compound 5], for which the gall ratings is given as 0.00.
Consider `c1ccc(-c2nnn(-c3cccs3)n2)cc1` [compound 6], for which the gall ratings came to 0.00.
On the same count and under the same terms, next, `c1ccc(-n2nnc(-n3cccc3)n2)cc1` [compound 7]: 0.33.

In another series the test system is C. elegans. Put plainly: C. elegans well test (contact assay). Conditions: 1 day, L1 worms, 20° C. It counts as cell-based. On the procedure:
C. elegans: Various compounds were tested for nematicidal activity against C. elegans using contact assays in wells. The assays were performed as described below. The test compounds were solubilized in DMSO at 10 mg/ml to create 100× stock solutions. A dilution series was created by diluting the stock solution with DMSO. For each well assay 4 ul of the appropriate dilution is added to a well of a test plate. A 400 ul aliquot of bacterial stock (in M9 buffer with ampicillin) is added to each well of the test plate. Worms are added and the test plate placed on a rotary shaker incubated at 20° C. Worms are examined and scored at 24 hrs, 48 hrs and 72 hours. L1 worms used in the assay are prepared by plating eggs on a plate without a bacterial feeding layer. The eggs hatch and arrest at the L1 stage. This L1 stage population is then used to create a stock for the experiments. A 25 ul aliquot of worms is added to each well in the assay.
As to `Clc1ccc(-n2nnc(-c3cccs3)n2)cc1` [compound 1], the EC50 was found to be 0.8 ppm.
Regarding `c1ccc(-n2nnc(-c3cccs3)n2)cc1` [compound 2], the EC50 is on record as over 50 ppm.
`Cc1cc(Cl)ccc1-n1nnc(-c2ccco2)n1` [compound 3]: the EC50 is given as 0.8/0.8/0.8 ppm.

Still in this series, the particulars now being: 2 days, L1 worms, 20° C.
`Clc1ccc(-n2nnc(-c3cccs3)n2)cc1` [compound 1]: the EC50 was 0.8 ppm.
In turn, `c1ccc(-n2nnc(-c3cccs3)n2)cc1` [compound 2] displayed an EC50 of 0.8 ppm.
On the same count and under the same terms, next, `Cc1cc(Cl)ccc1-n1nnc(-c2ccco2)n1` [compound 3]: 0.8/0.8/0.8 ppm.

Still in this series, the particulars now being: 3 days, L1 worms, 20° C.
`Clc1ccc(-n2nnc(-c3cccs3)n2)cc1` [compound 1] came in with an EC50 of 0.9 ppm.
The same measure, in the same setting: under `c1ccc(-n2nnc(-c3cccs3)n2)cc1` [compound 2] stands 0.8 ppm.
Consider `Cc1cc(Cl)ccc1-n1nnc(-c2ccco2)n1` [compound 3], for which the EC50 is given as 0.8/0.8/0.8 ppm.

Another series has as its system H. contortus. Put plainly: H. contortus larval development assay. In kind it is cell-based. Conditions: at 72 hours; hatching and larval movement. How it is done:
The assay was performed essentially as described in: Hubert J, Kerboeuf D. A new method for culture of larvae used in diagnosis of ruminant gastrointestinal strongylosis: comparison with fecal cultures. Can J Comp Med. 1984 48(1):63-71. H. contortus eggs were obtained from Myers Parasitology (Magnolia, Ky.). The test compounds were solubilized in DMSO to create […] stock solutions. 2 ul of compound at various concentrations followed by 200 ul of molten agar were mixed into the wells. Approximately 50 eggs were placed in the well and incubated for 24 hours. After this time, >50% of the eggs were hatched in DMSO controls. After 24 hr, 100 ul of growth medium (Earle's salt solution, 1% yeast extract, 0.9% saline, and sodium bicarbonate to pH 7) containing compound was added to allow larval feeding. After 48 hr in growth medium (total of 72 hours) the wells were evaluated for hatching and larval movement.
As for `Clc1ccc(-n2nnc(-c3cccs3)n2)cc1` [compound 1], the EC50 is reported as under 6.3 ppm.
The same measure, in the same setting: under `c1ccc(-n2nnc(-c3cccs3)n2)cc1` [compound 2] stands 6.3-25 ppm.
Still for that read-out and setting: next, `Cc1cc(Cl)ccc1-n1nnc(-c2ccco2)n1` [compound 3]: under 6.3 ppm.

Tested on in a further series: not given
Assay: not given
The settings on record: classification by the US Environmental Protection Agency; cited from earlier work.
In the case of `CNC(=O)O/N=C(\SC)C(=O)N(C)C` [Oxamyl, reference compound], the toxicity class result is “Class I”.
